The values that follow come from PMC4359714 (Naunyn-Schmiedeberg's Archives of Pharmacology, 2015).

The fraction unbound is the share of the substance not bound to proteins or other matrix. Read a high fraction unbound as much free substance. As usually defined, the IC90 is the point of the concentration-response curve where the effect stands at 90%. By ED50 is commonly meant the dose at which the effect has come halfway, by size or by number of responders.

Data set [1] in a line: Plasma protein binding by ultracentrifugation. Format: in vitro ADME. The settings on record: male, rat plasma. As to the method:
The unbound fraction in plasma was determined by ultracentrifugation.

Data set [2] deals with TRPM8-mediated icilin-induced wet-dog shakes in rats. Briefly: Icilin-induced wet-dog shake (WDS) model. Type of data set: in vivo, rat. As to the method: The TRPM8 antagonist (1, 3, or 10 mg/kg) or vehicle control (5 % Tween 80 in OraPlus®) was administered p.o. 90 min prior to administration of icilin (0.5 mg/kg, 1 ml/kg, i.p., 100 % PEG 400). […] Rats were viewed through transparent Plexiglas® observation cylinders that were placed on a custom, opaque, plastic apparatus such that one rat could not view another rat.
In vivo IC50 and IC90 estimates using WDS model data were determined by fitting a sigmoidal dose-response curve to individual animal number of WDS versus resulting plasma concentration. Behavioral and electrophysiological data are expressed as mean ± standard error of the mean (S.E.M.). Results were analyzed using one-way analysis of variance (ANOVA) with Dunnett’s multiple-comparisons post-hoc test for significance relative to vehicle. […] Actual gram values are plotted on a logarithmic scale Y-axis of the figures for convenience. Statistical calculations and graphs were made using GraphPad Prism 5.01 (GraphPad Software Inc, San Diego, CA). Percent responders to menthol stimulation in the ex vivo skin-nerve preparation were compared under vehicle and antagonist conditions through the use of Fisher’s exact test. Responses of C fibers to increasing mechanical forces under vehicle or antagonist conditions were compared using a two-way ANOVA with a Bonferonni post-hoc analysis.

In the next data set the test system is CFA-injected rats. Briefly: CFA-induced hypersensitivity (rearing on prickly floor). Format: in vivo, rat. The following applies: 100 mg/kg p.o.; p > 0.05 vs CFA vehicle ([…] s). As to the method:
Rats were habituated in a reversed light cycle room for at least 1 week and to the testing room for 1 h prior to dosing. […] Twenty-one hours after the CFA injection, animals were treated (p.o.) with vehicle (5 % Tween 80 in OraPlus®) or TRPM8 antagonist. Two hours after drug dosing (23 h after CFA injection), rats were placed in the same Kinder Scientific open field boxes as described above but with customized prickly floor inserts placed inside. Rearing time and rearing counts were measured for 60 min.

In a further data set the test system is SNL rats. Briefly: SNL-induced tactile allodynia (von Frey, up-down method). Format: in vivo, rat. The settings on record: 100 mg/kg p.o.; p > 0.05 vs vehicle (4.4 ± 1.2 g). The protocol:
SNL surgery was performed using aseptic surgical techniques and a stereomicroscope (Kim and Chung [1992]). Spinal nerve injury was caused by ligating the left L5 and L6 spinal nerves, with special care to avoid damage to the L4 spinal nerve or surrounding area. More specifically, under gaseous anesthesia with a mixture of O2 and isoflurane (3 % for induction and 2 % for maintenance), skin was excised and the longissimus lumborum muscle, part of articular processes (L4-S1), and the fascia above L6 spinal nerve were carefully removed. […]
Behavioral testing Two weeks post surgery, mechanical sensitivity was measured by determining the median 50 % foot withdrawal threshold for von Frey filaments using the up-down method (Chaplan et al. [1994]). […] To avoid possible reflex responses, only abrupt withdrawal of the foot accompanied by pain indicative behaviors (namely paw flinching, shaking, or licking for more than 2 s) was recorded as a response. […]
In vivo IC50 and IC90 estimates using WDS model data were determined by fitting a sigmoidal dose-response curve to individual animal number of WDS versus resulting plasma concentration. Behavioral and electrophysiological data are expressed as mean ± standard error of the mean (S.E.M.). Results were analyzed using one-way analysis of variance (ANOVA) with Dunnett’s multiple-comparisons post-hoc test for significance relative to vehicle. […]

Regarding `C[C@H](NC(=O)N1CCc2cccnc2[C@H]1c1ccc(C(F)(F)F)cc1)C(F)(F)F` [AMG2850, (R)-8-(4-(trifluoromethyl)phenyl)-N-((S)-1,1,1-trifluoropropan-2-yl)-5,6-dihydro-1,7-naphthyridine-7(8H)-carboxamide], the fraction unbound at 15 min, 5 ug/mL in data set [1] was 0.119. Further, in data set [2] (10 mg/kg p.o., 90 min before icilin 0.5 mg/kg i.p.), the “prevention of icilin-induced WDS” value is “Full prevention”. In data set [2] (Rattus norvegicus, ip, unbound plasma concentration, icilin 0.5 mg/kg i.p., read-out: Rat PD IC90 (unbound mean in vivo IC90, WDS model)), the IC90 came to 99 nM. The median effective dose (ED50) in data set [2] (Rattus norvegicus, p.o., icilin 0.5 mg/kg i.p., read-out: Rat PD ED50) came to 1.8 mg/kg. For the same molecule, in the data set with CFA-injected rats, the “rearing time, CFA model” value amounted to 157 ± 25 s. The “tactile threshold (von Frey), SNL model” value with SNL rats came out at 5.8 ± 1.3 g.
